Results: US12559492B2, “BRAF degraders” (C4 Therapeutics, Inc., priority 2020, dated 2026)

Molecular target: BRAF^V600E protein (Homo sapiens, UniProt P15056, V600E)
Assay: HiBiT cellular BRAF V600E degradation assay
Type: cell-based
Conditions: 24 h incubation; for DC50: A375.10 cells (HiBiT tag knocked in at N-terminal of BRAF V600E), concentration at which 50% of total cellular BRAF V600E is degraded; for Emax: A375.10 cells, Emax = amount of residual protein remaining in the cell after compound treatment, read-out: HiBit 24 h Emax

Sequence of BRAF^V600E protein (P15056 whole entry V600E): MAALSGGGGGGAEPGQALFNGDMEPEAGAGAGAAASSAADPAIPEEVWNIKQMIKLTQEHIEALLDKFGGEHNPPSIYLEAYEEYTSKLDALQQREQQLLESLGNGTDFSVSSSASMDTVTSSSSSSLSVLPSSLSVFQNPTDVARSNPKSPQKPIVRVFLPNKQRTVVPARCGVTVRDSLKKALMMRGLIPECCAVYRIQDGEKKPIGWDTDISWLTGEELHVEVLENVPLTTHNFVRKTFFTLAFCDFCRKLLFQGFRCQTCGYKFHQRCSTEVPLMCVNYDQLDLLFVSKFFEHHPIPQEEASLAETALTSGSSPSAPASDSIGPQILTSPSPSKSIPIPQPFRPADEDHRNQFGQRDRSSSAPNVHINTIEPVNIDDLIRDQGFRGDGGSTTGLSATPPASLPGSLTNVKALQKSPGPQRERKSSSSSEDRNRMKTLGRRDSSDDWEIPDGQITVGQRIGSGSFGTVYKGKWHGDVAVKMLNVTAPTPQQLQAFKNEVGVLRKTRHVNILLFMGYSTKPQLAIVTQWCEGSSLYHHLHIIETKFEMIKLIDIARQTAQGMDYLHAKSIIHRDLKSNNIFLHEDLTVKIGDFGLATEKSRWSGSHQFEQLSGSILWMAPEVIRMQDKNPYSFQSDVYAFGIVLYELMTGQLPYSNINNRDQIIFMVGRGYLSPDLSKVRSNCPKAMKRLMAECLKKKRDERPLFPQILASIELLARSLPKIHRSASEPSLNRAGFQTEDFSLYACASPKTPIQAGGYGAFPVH

| SMILES | DC50 [nM] | Emax [%] |
| --- | --- | --- |
| CCN(C)S(=O)(=O)Nc1ccc(F)c(C(=O)c2c[nH]c3ncc(-c4ccc(N5CCN(C(=O)CN6CCC(c7ccc(OC8CCC(=O)NC8=O)cn7)CC6)CC5)nc4)cc23)c1F (stereo not drawn) [Example A45, 5-[6-[4-[2-[4-[5-(2,6-Dioxopiperidin-3-yl)oxypyridin-2-yl]piperidin-1-yl]acetyl]piperazin-1-yl]pyridin-3-yl]-3-[3-[[ethyl(methyl)sulfamoyl]amino]-2,6-difluorobenzoyl]-1H-pyrrolo[2,3-b]pyridine] | 65 | 21 |
| CCN(C)S(=O)(=O)Nc1ccc(F)c(C(=O)c2c[nH]c3ncc(-c4ccc(N5CCN(C(=O)CN6CCC(c7ccc(NC89CC(C8)C(=O)NC9=O)cc7)CC6)CC5)nc4)cc23)c1F [Example A47, 5-[6-[4-[2-[4-[4-[(2,4-Dioxo-3-azabicyclo[3.1.1]heptan-1-yl)amino]phenyl]piperidin-1-yl]acetyl]piperazin-1-yl]pyridin-3-yl]-3-[3-[[ethyl(methyl)sulfamoyl]amino]-2,6-difluorobenzoyl]-1H-pyrrolo[2,3-b]pyridine] | 3.86 | 10.7 |
| O=C1CCC(Oc2ccc(C3CCN(CC(=O)N4CCN(c5ccc(-c6cnc7[nH]cc(C(=O)c8c(F)ccc(NS(=O)(=O)N9CCCC9)c8F)c7c6)cc5)CC4)CC3)cc2)C(=O)N1 (stereo not drawn) [Example A50, N-[3-[5-[4-[4-[2-[4-[4-(2,6-Dioxopiperidin-3-yl)oxyphenyl]piperidin-1-yl]acetyl]piperazin-1-yl]phenyl]-1H-pyrrolo[2,3-b]pyridine-3-carbonyl]-2,4-difluorophenyl]pyrrolidine-1-sulfonamide] | 15 | 12 |
| O=C1CCC(Nc2ccc(C3CCN(CC(=O)N4CCN(c5ccc(-c6cnc7[nH]cc(C(=O)c8c(F)ccc(NS(=O)(=O)C9CCCC9)c8F)c7c6)cc5)CC4)CC3)cc2)C(=O)N1 (stereo not drawn) [Example A52, N-[3-[5-[4-[4-[2-[4-[4-[(2,6-Dioxopiperidin-3-yl)amino]phenyl]piperidin-1-yl]acetyl]piperazin-1-yl]phenyl]-1H-pyrrolo[2,3-b]pyridine-3-carbonyl]-2,4-difluorophenyl]cyclopentanesulfonamide] | 10 | 12 |
| CCN(C)S(=O)(=O)Nc1ccc(F)c(C(=O)c2c[nH]c3ncc(-c4ccc(N5CCC(NC(=O)CN6CCC(c7ccc(NC8CCC(=O)NC8=O)cn7)CC6)CC5)cc4)cc23)c1F (stereo not drawn) [Example A56, 2-[4-[5-[(2,6-dioxopiperidin-3-yl)amino]pyridin-2-yl]piperidin-1-yl]-N-[1-[4-[3-[3-[[ethyl(methyl)sulfamoyl]amino]-2,6-difluorobenzoyl]-1H-pyrrolo[2,3-b]pyridin-5-yl]phenyl]piperidin-4-yl]acetamide; formic acid] | 20 | 11 |
| CCN(C)S(=O)(=O)Nc1ccc(F)c(C(=O)c2c[nH]c3ncc(-c4ccc(N5CCC(NC(=O)CN6CCC(c7ccc(NC8CCC(=O)NC8=O)cn7)CC6)CC5)nc4)cc23)c1F (stereo not drawn) [Example A57, 2-[4-[5-[(2,6-dioxopiperidin-3-yl)amino]pyridin-2-yl]piperidin-1-yl]-N-[1-[5-[3-[3-[[ethyl(methyl)sulfamoyl]amino]-2,6-difluorobenzoyl]-1H-pyrrolo[2,3-b]pyridin-5-yl]pyridin-2-yl]piperidin-4-yl]acetamide;formic acid] | 33 | 13 |
| CCN(C)S(=O)(=O)Nc1ccc(F)c(C(=O)c2c[nH]c3ncc(-c4cnc(N5CCC(NC(=O)CN6CCC(c7ccc(OC8CCC(=O)NC8=O)cn7)CC6)CC5)nc4)cc23)c1F (stereo not drawn) [Example A60, 2-[4-[5-(2,6-Dioxopiperidin-3-yl)oxypyridin-2-yl]piperidin-1-yl]-N-[1-[5-[3-[3-[[ethyl(methyl)sulfamoyl]amino]-2,6-difluorobenzoyl]-1H-pyrrolo[2,3-b]pyridin-5-yl]pyrimidin-2-yl]piperidin-4-yl]acetamide;formic acid] | 275 | 24 |

Continued by falling DC50, values first:

| DC50 [nM] | Emax [%] | SMILES |
| --- | --- | --- |
| 97 | 26 | CCN(C)S(=O)(=O)Nc1ccc(F)c(C(=O)c2c[nH]c3ncc(-c4cnc(N5CCN(C(=O)C(C)(C)N6CCC(c7ccc(NC8CCC(=O)NC8=O)cc7)CC6)CC5)nc4)cc23)c1F (stereo not drawn) [Example A55, 5-[2-[4-[2-[4-[4-[(2,6-Dioxopiperidin-3-yl)amino]phenyl]piperidin-1-yl]-2-methylpropanoyl]piperazin-1-yl]pyrimidin-5-yl]-3-[3-[[ethyl(methyl)sulfamoyl]amino]-2,6-difluorobenzoyl]-1H-pyrrolo[2,3-b]pyridine] |
| 60 | 13 | CCN(C)S(=O)(=O)Nc1ccc(F)c(C(=O)c2c[nH]c3ncc(-c4cnc(N5CCC(NC(=O)CN6CCC(c7ccc(OC8CCC(=O)NC8=O)cc7)CC6)CC5)nc4)cc23)c1F (stereo not drawn) [Example A59, 2-[4-[4-(2,6-Dioxopiperidin-3-yl)oxyphenyl]piperidin-1-yl]-N-[1-[5-[3-[3-[[ethyl(methyl)sulfamoyl]amino]-2,6-difluorobenzoyl]-1H-pyrrolo[2,3-b]pyridin-5-yl]pyrimidin-2-yl]piperidin-4-yl]acetamide;formic acid] |
| 43 | 13 | CCN(C)S(=O)(=O)Nc1ccc(F)c(C(=O)c2c[nH]c3ncc(-c4cnc(N5CCC(NC(=O)CN6CCC(c7ccc(NC8CCC(=O)NC8=O)cn7)CC6)CC5)nc4)cc23)c1F (stereo not drawn) [Example A58, 2-[4-[5-[(2,6-dioxopiperidin-3-yl)amino]pyridin-2-yl]piperidin-1-yl]-N-[1-[5-[3-[3-[[ethyl(methyl)sulfamoyl]amino]-2,6-difluorobenzoyl]-1H-pyrrolo[2,3-b]pyridin-5-yl]pyrimidin-2-yl]piperidin-4-yl]acetamide; formic acid] |
| 40 | 16 | CCN(C)S(=O)(=O)Nc1ccc(F)c(C(=O)c2c[nH]c3ncc(-c4ccc(N5CCC(NC(=O)CN6CCC(c7ccc(OC8CCC(=O)NC8=O)cc7)CC6)CC5)nc4)cc23)c1F (stereo not drawn) [Example A61, 2-[4-[4-(2,6-Dioxopiperidin-3-yl)oxyphenyl]piperidin-1-yl]-N-[1-[5-[3-[3-[[ethyl(methyl)sulfamoyl]amino]-2,6-difluorobenzoyl]-1H-pyrrolo[2,3-b]pyridin-5-yl]pyridin-2-yl]piperidin-4-yl]acetamide;formic acid] |
| 27 | 22 | O=C1CCC(Nc2ccc(C3CCN(C(=O)NC4CCN(Cc5ccc(-c6cnc7[nH]cc(C(=O)c8c(F)ccc(NS(=O)(=O)N9CCCC9)c8F)c7c6)cc5)CC4)CC3)cc2)C(=O)N1 (stereo not drawn) [Example A53, N-[1-[[4-[3-[2,6-Difluoro-3-(pyrrolidin-1-ylsulfonylamino)benzoyl]-1H-pyrrolo[2,3-b]pyridin-5-yl]phenyl]methyl]piperidin-4-yl]-4-[4-[(2,6-dioxopiperidin-3-yl)amino]phenyl]piperidine-1-carboxamide;formic acid] |
| 17 | 11 | CCN(C)S(=O)(=O)Nc1ccc(F)c(C(=O)c2c[nH]c3ncc(-c4ccc(C5CCN(C(=O)CN6CCC(c7ccc(NC8CCC(=O)NC8=O)cc7)CC6)CC5)nc4)cc23)c1F (stereo not drawn) [Example A49, 5-[6-[1-[2-[4-[4-[(2,6-Dioxopiperidin-3-yl)amino]phenyl]piperidin-1-yl]acetyl]piperidin-4-yl]pyridin-3-yl]-3-[3-[[ethyl(methyl)sulfamoyl]amino]-2,6-difluorobenzoyl]-1H-pyrrolo[2,3-b]pyridine] |
| 8 | 18 | CCN(C)S(=O)(=O)Nc1ccc(F)c(C(=O)c2c[nH]c3ncc(-c4cnc(N5CCC(NC(=O)CN6CCC(c7ccc(NC8CCC(=O)NC8=O)cc7)CC6)CC5)nc4)cc23)c1F (stereo not drawn) [Example A62, 2-[4-[4-[(2,6-Dioxopiperidin-3-yl)amino]phenyl]piperidin-1-yl]-N-[1-[5-[3-[3-[[ethyl(methyl)sulfamoyl]amino]-2,6-difluorobenzoyl]-1H-pyrrolo[2,3-b]pyridin-5-yl]pyrimidin-2-yl]piperidin-4-yl]acetamide;formic acid] |
| 7.44 | 10.8 | CCN(C)S(=O)(=O)Nc1ccc(F)c(C(=O)c2c[nH]c3ncc(-c4cnc(C5CCN(C(=O)CN6CCC(c7ccc(NC8CCC(=O)NC8=O)cc7)CC6)CC5)nc4)cc23)c1F (stereo not drawn) [Example A46, 5-[2-[1-[2-[4-[4-[(2,6-Dioxopiperidin-3-yl)amino]phenyl]piperidin-1-yl]acetyl]piperidin-4-yl]pyrimidin-5-yl]-3-[3-[[ethyl(methyl)sulfamoyl]amino]-2,6-difluorobenzoyl]-1H-pyrrolo[2,3-b]pyridine] |
| 5 | 12 | O=C1CCC(Nc2ccc(C3CCN(CC(=O)N4CCN(c5ccc(-c6cnc7[nH]cc(C(=O)c8c(F)ccc(NS(=O)(=O)N9CCCC9)c8F)c7c6)cc5)CC4)CC3)cc2)C(=O)N1 (stereo not drawn) [Example A48, N-[3-[5-[4-[4-[2-[4-[4-[(2,6-Dioxopiperidin-3-yl)amino]phenyl]piperidin-1-yl]acetyl]piperazin-1-yl]phenyl]-1H-pyrrolo[2,3-b]pyridine-3-carbonyl]-2,4-difluorophenyl]pyrrolidine-1-sulfonamide] |
| 4 | 14 | O=C1CCC(Nc2ccc(N3CCN(CC(=O)N4CCN(c5ccc(-c6cnc7[nH]cc(C(=O)c8c(F)ccc(NS(=O)(=O)N9CCCC9)c8F)c7c6)cc5)CC4)CC3)cc2)C(=O)N1 (stereo not drawn) [Example A51, N-[3-[5-[4-[4-[2-[4-[4-[(2,6-Dioxopiperidin-3-yl)amino]phenyl]piperazin-1-yl]acetyl]piperazin-1-yl]phenyl]-1H-pyrrolo[2,3-b]pyridine-3-carbonyl]-2,4-difluorophenyl]pyrrolidine-1-sulfonamide] |
| 3.94 | 9.71 | CCN(C)S(=O)(=O)Nc1ccc(F)c(C(=O)c2c[nH]c3ncc(-c4cnc(N5CCN(C(=O)CN6CCC(c7ccc(NC8CCC(=O)NC8=O)cc7F)CC6)CC5)nc4)cc23)c1F (stereo not drawn) [Example A54, 5-[2-[4-[2-[4-[4-[(2,6-Dioxopiperidin-3-yl)amino]-2-fluorophenyl]piperidin-1-yl]acetyl]piperazin-1-yl]pyrimidin-5-yl]-3-[3-[[ethyl(methyl)sulfamoyl]amino]-2,6-difluorobenzoyl]-1H-pyrrolo[2,3-b]pyridine] |
